Measured values as given in US10647990B2, “Rice high temperature resistance gene and use in crop breeding resistance to high temperature thereof” (SHANGHAI INSTITUTES FOR BIOLOGICAL SCIENCES, CHINESE …, priority 2014, dated 2020).
Entries after “also recorded” stand apart in the source; their conditions may differ. Peptide text beside a SMILES is read from it. * marks the point of attachment. Cbz = O=C(OCc1ccccc1)*

System: rice
Experiment: MG132 treatment of rice during high temperature treatment (blocking the 26S proteasome degradation pathway)
Assay type: in vivo, Oryza sativa
Conditions: under high temperature stress; MG132 0 μM, 50 μM, 100 μM; FIG. 6G, H

## CC(C)C[C@@H](C=O)NC(=O)[C@H](CC(C)C)NC(=O)[C@H](CC(C)C)NC(=O)OCc1ccccc1 [MG132] (Cbz-Leu-Leu-Leu-aldehyde)
  high temperature resistance of rice: high temperature sensitive phenotype; also recorded: can reduce the high temperature resistance of rice
